The values below come from patent US10807960B2, “Compounds, compositions, and methods for controlling biofilms” (KATHOLIEKE UNIVERSITEIT LEUVEN, priority 2015, dated 2020).

Marks after values point to notes of the source that are not given here.

For series [1], the system named is C. albicans SC5314 + S. epidermidis. As to the kind of experiment: mixed C. albicans/S. epidermidis biofilm assay, selective plating. In kind it is cell-based, Candida albicans; Staphylococcus epidermidis. Particulars: for CFUs % survival C.a.: C. albicans in mixed biofilm with S. epidermidis; for CFUs % survival C.a. / CFUs % survival S.e.: 37° C.; for CFUs % survival S.e.: S. epidermidis in mixed biofilm with C. albicans. The method, then: The concentrations 25 μM (0.0625% DMSO or ethanol) and 100 μM (0.25% DMSO or ethanol) were tested. After 24 h of incubation at 37° C., biofilms were washed with PBS and fresh medium with or without compounds was added. After further incubation for 48 h at 37° C., the biofilms were washed with PBS after which the cells were re-suspended in 100 μl of PBS by scraping off, sonication (1 min, 45 kHz, USC300-T; VWR, Radnor, Pa., USA) and vigorously pipetting up-and-down. Finally, the biofilm cells were diluted in PBS and plated on YPD agar plates containing 100 mg/L ampicillin and TSA plates containing 25 mg/L amphotericin B, to determine the number of fungal and bacterial CFUs after 2 days of incubation at 37° C., respectively. The percentage of C. albicans SC5314 and S. epidermidis cells was determined relative to the DMSO or ethanol control treatment.

Series [2] has as its system eukaryotic tumor cell lines. Particulars: as previously reported; cited from earlier work.
In series [3] the test system is bone cells. Particulars: as previously reported; cited from earlier work.
Series [4] relates to Caenorhabditis elegans. Particulars: as previously reported; cited from earlier work.

For `CCCCCCCCn1c(-c2ccc(Cl)cc2)cnc1N` [Compound 2], in series [1] (25 μM), the “biofilm formation of C. albicans/S. epidermidis (in words)” value is given as “completely inhibited”. The “CFUs % survival C.a.” value in series [1] (25 μM) is <0.6* %; in series [1] (100 μM), <0.2* %. Besides, the “CFUs % survival S.e.” value in series [1] (25 μM) and in series [1] (100 μM) was 0.0* % throughout. Also, the “toxicity (in words)” value in series [2], in series [3] and in series [4] was “strong toxicity” throughout.

As to `CC(C)CNc1ncc(-c2ccc(Cl)cc2)[nH]1` [Compound 3], the “CFUs % survival C.a.” value in series [1] (25 μM) is recorded as 58.3* %; in series [1] (100 μM), 235.1%. Also, the “CFUs % survival S.e.” value in series [1] (25 μM) is recorded as 64.6* %; in series [1] (100 μM), 13.2* %.

In the case of `Clc1ccc(-c2cnc(NC3CCCC3)[nH]2)cc1` [Compound 5], in series [1] (100 μM), the “activity against S. epidermidis in the C. albicans/S. epidermidis biofilm (in words)” value was “complete inhibition”, the “CFUs % survival C.a.” value came to 594.7% and the “CFUs % survival S.e.” value is given as 2.3* %. For the same molecule, in series [1] (25 μM), the “CFUs % survival C.a.” value was determined as 167.9% and the “CFUs % survival S.e.” value worked out at 72.0%.
